Measurements: patent US10195189B2, “2-phenethenyltetrahydro isoquinolines useful as anti-HIV compounds” (priority 2014, dated 2019)

Test system: HIV-1 NL4-3 viral clone expressing Renilla luciferase
Experiment: microbe, parasite or virus in culture
Type: cell-based
Conditions: Human immunodeficiency virus 1, NL43, MT2, 96 h
Protocol: Protocol for MT-2 Spread Assay
The present assay was used to screen candidate antiviral compounds by quantification of virus spread and production over several rounds of infection in vitro. MT-2, a HIV-1 permissive human T-cell line, was seeded in microtiter plates and was simultaneously treated with serially diluted compound and inoculated with a HIV-1 NL4-3 viral clone engineered to express Renilla luciferase in place of Net Following treatment, the culture was incubated for 96 hours. After the incubation, media was collected and used to estimate relative infectivity on the indicator cell line, TZM-bl. Additionally, viral spread was quantified by measuring luciferase activity via a commercially available luciferase substrate. In parallel, MT-2 cells were seeded and inoculated with mock virus in the presence of serially diluted compound. Compound toxicity was quantified 96 hours after treatment with AlamarBlue.
MT-2 (NIH Aids reagent program 237) cells were grown and maintained in an incubator at 37° C. with 5% CO2 using a basal medium of RPMI-1640 supplemented with 10% FBS. Cells were seeded in 100 μl at 2×10^4 cells/well in white walled 96-well microtiter plates. Candidate compounds were 3-fold serially diluted in the appropriate solvent. Solvent without compound was used as a no drug reference. Cells were inoculated at a multiplicity of 0.027 with an HIV-1 NL4-3 virus stock engineered to express Renilla luciferase in place of Net Diluted virus stock was first added to serially diluted compound. Compound and virus were delivered to cells in an equal volume (100 μl) and treated cultures were returned to the incubator for 96 hours. In parallel, plates for cytotoxicity estimates were prepared in the same way except cells were plated in clear walled 96-well microtiter plates and were mock infected.
At 96 hours post infection, 100 μl virus containing culture supernatant was collected from the treated and infected cultures and serially diluted in DMEM supplemented with 10% FBS, 1% sodium pyruvate, and 20 μg/ml DEAE dextran. One day prior, TZM-bl (ATCC PTA-5659) were cultured in basal medium of DMEM supplemented with 10% FBS and 1% sodium pyruvate and seeded at 7.5×10^3 cells/well in black walled 96-well microtiter plates. Diluted virus containing culture supernatant was transferred to TZM-bl cultures and incubated for 48 hours at 37° C. with 5% CO2. Infected TZM-bl cultures were fixed for 5 minutes with a 1% formaldehyde/0.2% gluteraldehyde/PBS solution then washed three times with PBS. Fixed cultures were incubated at 37° C. for 25 minutes with a 200 μg/ml MUG (4-Methylumbelliferyl β-D-[…])/DMEM solution. The reaction was stopped with an equal volume of 1M sodium carbonate and read at 360, 449 nm on fluorescence plate reader (Biotek).
At 96 hours post infection, 100 μl of culture supernatant was removed from the treated and infected cultures and EnduRen live cell substrate (Promega) was added at a final concentration 1.3 μg/ml. Cells were incubated for 1.5 hours at 37° C. with 5% CO2 then read on a luminescence plate reader (Biotek).
For all assays, data was imported into Accelrys Assay Explorer 3.3. In Assay Explorer, % inhibition (antiviral or cytotoxicity) was calculated using the solvent control as a reference by the following equation: 1−(SignalCompound/SignalReference). The % Inhibition and compound concentration data was fitted using the following 4-parameter logistic model (Assay Explorer model 42):
[formula] where X is compound concentration, Y is % inhibition, D is the maximum % Inhibition (constrained to 100%), C is IC50 value or inflection point, B is the hill slope, and A is the minimum % inhibition (constrained to 0%). The IC50 value is reported as the EC50 or CC50 depending on the assay endpoint. EC50 represents the effective concentration at which virus replication is inhibited by 50 percent. CC50 represents the concentration that results in the death of 50 percent of the host cells. […]

SMILES | EC50 [nM]
COc1cc(C)c(/C=C/C2NCCc3cc(OCc4ccccc4)c(OC)cc32)cc1OCc1ccccc1 (stereo not shown) [AF, 6-benzyloxy-1-[(E)-2-(5-benzyloxy-4-methoxy-2-methyl-phenyl)vinyl]-7-methoxy-1,2,3,4-tetrahydroisoquinoline] | 83
COc1cc2c(cc1OCc1ccccc1)CCNC2/C=C/c1cc(OC)c(OCc2ccccc2)c(OC)c1 (stereo not shown) [AP, 6-Benzyloxy-1-[(E)-2-(4-benzyloxy-3,5-dimethoxy-phenyl)vinyl]-7-methoxy-1,2,3,4-tetrahydroisoquinoline] | 970
COc1cc(OC)c(OC)cc1/C=C/C1NCCc2cc(OCc3ccccc3)c(OC)cc21 (stereo not shown) [AQ, 6-Benzyloxy-7-methoxy-1-[(E)-2-(2,4,5-trimethoxyphenyl)vinyl]-1,2,3,4-tetrahydroisoquinoline] | 15.1
COc1ccc(/C=C/C2NCCc3cc(OCc4ccccc4)c(OC)cc32)cc1Br (stereo not shown) [AR, 6-Benzyloxy-1-[(E)-2-(3-bromo-4-methoxy-phenyl)vinyl]-7-methoxy-1,2,3,4-tetrahydroisoquinoline] | 800
COc1cc(/C=C/C2NCCc3cc(OCc4ccccc4)c(OC)cc32)cc(OC)c1 (stereo not shown) [AT, 6-Benzyloxy-1-[(E)-2-(3,5-dimethoxyphenyl)vinyl]-7-methoxy-1,2,3,4-tetrahydroisoquinoline] | 770
COc1cc(/C=C/C2NCCc3cc(OCc4ccccc4)c(OC)cc32)ccn1 (stereo not shown) [AU, 6-benzyloxy-7-methoxy-1-[(E)-2-(2-methoxy-4-pyridyl)vinyl]-1,2,3,4-tetrahydroisoquinoline] | 1650
COc1ccc(/C=C/C2NCCc3cc(OCc4ccccc4)c(OC)cc32)c(OC)c1 (stereo not shown) [AV, 6-Benzyloxy-1-[(E)-2-(2,4-dimethoxyphenyl)vinyl]-7-methoxy-1,2,3,4-tetrahydroisoquinoline] | 140
COc1cc2c(cc1OCc1ccccc1)CCNC2/C=C/c1ccncc1 (stereo not shown) [AW, 6-Benzyloxy-7-methoxy-1-[(E)-2-(4-pyridyl)vinyl]-1,2,3,4-tetrahydroisoquinoline] | 3280
COc1ccc(/C=C/C2NCCc3cc(OCc4ccccc4)c(OC)cc32)cn1 (stereo not shown) [AX, 6-Benzyloxy-7-methoxy-1-[(E)-2-(6-methoxy-3-pyridyl)vinyl]-1,2,3,4-tetrahydroisoquinoline] | 3280
COc1cc2c(cc1OCc1ccccc1)CCNC2c1cc(OCc2ccccc2)c(OC)cc1C (stereo not shown) [AY, 6-(Benzyloxy)-1-(5-(benzyloxy)-4-methoxy-2-methylphenyl)-7-methoxy-1,2,3,4-tetrahydroisoquinoline] | 4880
COc1cc2c(cc1OCc1ccccc1)CCNC2c1ccccc1CNC(=O)OC(C)(C)C (stereo not shown) [AZ, tert-Butyl N-[[2-(6-benzyloxy-7-methoxy-1,2,3,4-tetrahydroisoquinolin-1-yl)phenyl]methyl]carbamate] | 2770
COc1cc(C)c(/C=C/C2NCCc3cc(OCc4ccccc4)c(OC)cc32)c(C)c1 (stereo not shown) [BA, 6-Benzyloxy-7-methoxy-1-[(E)-2-(4-methoxy-2,6-dimethyl-phenyl)vinyl]-1,2,3,4-tetrahydroisoquinoline] | 497
COc1cc2c(cc1OCc1ccccc1)CCNC2/C=C/c1cc2c(cc1C)OCO2 (stereo not shown) [BB, 6-Benzyloxy-7-methoxy-1-[(E)-2-(6-methyl-1,3-benzodioxol-5-yl)vinyl]-1,2,3,4-tetrahydroisoquinoline] | 54.4
COc1cc2c(cc1OCc1ccccc1)CCNC2/C=C/c1cc2c(cc1C)OCCO2 (stereo not shown) [BC, 6-Benzyloxy-7-methoxy-1-[(E)-2-(7-methyl-2,3-dihydro-1,4-benzodioxin-6-yl)vinyl]-1,2,3,4-tetrahydroisoquinoline] | 27.1
CCCCOc1ccc(/C=C/C2NCCc3cc(OCc4ccccc4)c(OC)cc32)cc1OC (stereo not shown) [BD, 6-Benzyloxy-1-[(E)-2-(4-butoxy-3-methoxy-phenyl)vinyl]-7-methoxy-1,2,3,4-tetrahydroisoquinoline] | 408
CCCCOc1cc(/C=C/C2NCCc3cc(OCc4ccccc4)c(OC)cc32)ccc1OC (stereo not shown) [BE, 6-Benzyloxy-1-[(E)-2-(3-butoxy-4-methoxy-phenyl)vinyl]-7-methoxy-1,2,3,4-tetrahydroisoquinoline] | 99.8

SMILES | EC50 [nM]
COc1ccc(/C=C/C2NCCc3cc(OCc4ccccc4)c(OC)cc32)cc1F (stereo not shown) [BF] | 1020
COc1cc2c(cc1OCc1ccccc1)CCNC2/C=C/c1ccc(N(C)C)cc1C (stereo not shown) [BG, 4-[(E)-2-(6-benzyloxy-7-methoxy-1,2,3,4-tetrahydroisoquinolin-1-yl)vinyl]-N,N,3-trimethyl-aniline] | 1650
COc1cc2c(cc1OCc1ccccc1)CCNC2/C=C/c1cc(OC(F)(F)F)ccc1C (stereo not shown) [BH, 6-Benzyloxy-7-methoxy-1-[(E)-2-[2-methyl-5-(trifluoromethoxy)phenyl]vinyl]-1,2,3,4-tetrahydroisoquinoline] | 1930
COc1cc2c(cc1OCc1ccccc1)CCNC2/C=C/c1ccccc1 (stereo not shown) [BI, 6-Benzyloxy-7-methoxy-1-[(E)-styryl]-1,2,3,4-tetrahydroisoquinoline] | 2200
COc1ccc(/C=C/C2NCCc3cc(OCc4ccccc4)c(OC)cc32)cc1 (stereo not shown) [BJ, 6-Benzyloxy-7-methoxy-1-[(E)-2-(4-methoxyphenyl)vinyl]-1,2,3,4-tetrahydroisoquinoline] | 477
COc1cc2c(cc1OCc1ccccc1)CCNC2/C=C/c1cccc(OCc2ccccc2)c1 (stereo not shown) [BK, 6-Benzyloxy-1-[(E)-2-(3-benzyloxyphenyl)vinyl]-7-methoxy-1,2,3,4-tetrahydroisoquinoline] | 260
CCCCOc1cc(/C=C/C2NCCc3cc(OCc4ccccc4)c(OC)cc32)c(C)cc1OC (stereo not shown) [BL, 6-Benzyloxy-1-[(E)-2-(5-butoxy-4-methoxy-2-methyl-phenyl)vinyl]-7-methoxy-1,2,3,4-tetrahydroisoquinoline] | 52
COc1cc2c(cc1OCc1ccccc1)CCNC2/C=C/c1ccc2c(c1)CCO2 (stereo not shown) [BM, 6-Benzyloxy-1-[(E)-2-(2,3-dihydrobenzofuran-5-yl)vinyl]-7-methoxy-1,2,3,4-tetrahydroisoquinoline] | 146
COc1cc2c(cc1OCc1ccccc1)CCNC2/C=C/c1ccc2occc2c1 (stereo not shown) [BN, 1-[(E)-2-(benzofuran-5-yl)vinyl]-6-benzyloxy-7-methoxy-1,2,3,4-tetrahydroisoquinoline] | 840
COc1cc(C)c(/C=C/C2NCCc3cc(OCc4ccccc4)c(OC)cc32)cc1OCCCC(=O)O (stereo not shown) [BO, 4-[5-[(E)-2-(B-benzyloxy-7-methoxy-1,2,3,4-tetrahydroisoquinolin-1-yl)vinyl]-2-methoxy-4-methyl-phenoxy]butanoic acid] | 234
COc1cc(F)c(/C=C/C2NCCc3cc(OCc4ccccc4)c(OC)cc32)cc1OC (stereo not shown) [BP, 6-Benzyloxy-1-[(E)-2-(2-fluoro-4,5-dimethoxy-phenyl)vinyl]-7-methoxy-1,2,3,4-tetrahydroisoquinoline] | 2030
COc1ccc(/C=C/C2NCCc3cc(OCc4ccccc4)c(OC)cc32)cc1OC (stereo not shown) [BQ, 6-Benzyloxy-1-[(E)-2-(3,4-dimethoxyphenyl)vinyl]-7-methoxy-1,2,3,4-tetrahydroisoquinoline] | 198
COc1ccc(/C=C/C2NCCc3cc(OCc4ccccc4)c(OC)cc32)c(F)c1 (stereo not shown) [BR, 6-Benzyloxy-1-[(E)-2-(2-fluoro-4-methoxy-phenyl)vinyl]-7-methoxy-1,2,3,4-tetrahydroisoquinoline] | 1140
COc1cc2c(cc1OCc1ccccc1)CCNC2/C=C/c1sccc1C (stereo not shown) [BS, 6-Benzyloxy-7-methoxy-1-[(E)-2-(3-methyl-2-thienyl)vinyl]-1,2,3,4-tetrahydroisoquinoline] | 2870
COc1cc(F)c(/C=C/C2NCCc3cc(OCc4ccccc4)c(OC)cc32)c(F)c1 (stereo not shown) [BU, 6-Benzyloxy-1-[(E)-2-(2,6-difluoro-4-methoxy-phenyl)vinyl]-7-methoxy-1,2,3,4-tetrahydroisoquinoline] | 1020
